# Reference: the supplement of paper PMC11208160
# Test: recombinant barcode read abundance after kanamycin selection (control-corrected) (log10(CPM+1)); higher = more efficient recombination; sequences stand for … in AGTGCAGAGAAAATCGGCCAGTTTTCTCTGCCTGCAGTCCGCATGCCGT…ATTTATGCAGCGGACTGCCTTTCTCCCAAAGTGATAAACCGGACAGTATCATGGACCGGTTTTCCCGGTAATCCGTATTTGCAAGGTTGGTTTCACT; site = the 11-nt target
# In short: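 Recombination efficiency draws on barcodes counted at recombinant junctions in a pooled E. coli screen of targets paired with IS621 bridge RNA target-binding loops. The counts were converted to counts per million, averaged and corrected against the chloramphenicol/ampicillin LB agar control, then reported as log10(CPM+1). Selection plates held chloramphenicol/ampicillin/kanamycin with 0.1 mM IPTG, with two replicates per condition.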
sequence,measurement,value
"TAGAGGGCTTGGGTTCTAACCTGTTGCGGCA [TAGAGGGCTCC_LTGcore_CT_RTGcore_TG] (site TAGAGGGCTCC) (LTG core: CT, RTG core: TG)",recombinant barcode read abundance (log10),1.66
"TAGAGGGGCTGGGTTCTAACCTGTTGCGGGC [TAGAGGGCTCC_LTGcore_GC_RTGcore_GC] (site TAGAGGGCTCC) (LTG core: GC, RTG core: GC)",recombinant barcode read abundance (log10),0.0588
"TAGAGGGGTTGGGTTCTAACCTGTTGCGGAC [TAGAGGGCTCC_LTGcore_GT_RTGcore_GT] (site TAGAGGGCTCC) (LTG core: GT, RTG core: GT)",recombinant barcode read abundance (log10),0.189
"TAGAGGGTATGGGTTCTAACCTGTTGCGGAG [TAGAGGGCTCC_LTGcore_TA_RTGcore_CT] (site TAGAGGGCTCC) (LTG core: TA, RTG core: CT)",recombinant barcode read abundance (log10),0.204
"TAGAGGGTATGGGTTCTAACCTGTTGCGGTA [TAGAGGGCTCC_LTGcore_TA_RTGcore_TA] (site TAGAGGGCTCC) (LTG core: TA, RTG core: TA)",recombinant barcode read abundance (log10),0.481
"TCGCGACACTGGGTTCTAACCTGTTGCCGGT [TCGCGACCTCG_LTGcore_AC_RTGcore_AC] (site TCGCGACCTCG) (LTG core: AC, RTG core: AC)",recombinant barcode read abundance (log10),0.102
"TCGCGACAGTGGGTTCTAACCTGTTGCCGCT [TCGCGACCTCG_LTGcore_AG_RTGcore_AG] (site TCGCGACCTCG) (LTG core: AG, RTG core: AG)",recombinant barcode read abundance (log10),0.128
"TCGCGACATTGGGTTCTAACCTGTTGCCGAG [TCGCGACCTCG_LTGcore_AT_RTGcore_CT] (site TCGCGACCTCG) (LTG core: AT, RTG core: CT)",recombinant barcode read abundance (log10),0.0137
"TCGCGACCATGGGTTCTAACCTGTTGCCGTG [TCGCGACCTCG_LTGcore_CA_RTGcore_CA] (site TCGCGACCTCG) (LTG core: CA, RTG core: CA)",recombinant barcode read abundance (log10),0.139
"TCGCGACCCTGGGTTCTAACCTGTTGCCGGG [TCGCGACCTCG_LTGcore_CC_RTGcore_CC] (site TCGCGACCTCG) (LTG core: CC, RTG core: CC)",recombinant barcode read abundance (log10),0.353
"TCGCGACCTTGGGTTCTAACCTGTTGCCGCC [TCGCGACCTCG_LTGcore_CT_RTGcore_GG] (site TCGCGACCTCG) (LTG core: CT, RTG core: GG)",recombinant barcode read abundance (log10),0.0891
"TCGCGACCTTGGGTTCTAACCTGTTGCCGTT [TCGCGACCTCG_LTGcore_CT_RTGcore_AA] (site TCGCGACCTCG) (LTG core: CT, RTG core: AA)",recombinant barcode read abundance (log10),0.0373
"TCGCGACGTTGGGTTCTAACCTGTTGCCGAG [TCGCGACCTCG_LTGcore_GT_RTGcore_CT] (site TCGCGACCTCG) (LTG core: GT, RTG core: CT)",recombinant barcode read abundance (log10),0.391
"TCTACCCACTGGGTTCTAACCTGTTGCTGGT [TCTACCCCTCA_LTGcore_AC_RTGcore_AC] (site TCTACCCCTCA) (LTG core: AC, RTG core: AC)",recombinant barcode read abundance (log10),0.045
"TCTACCCATTGGGTTCTAACCTGTTGCTGAT [TCTACCCCTCA_LTGcore_AT_RTGcore_AT] (site TCTACCCCTCA) (LTG core: AT, RTG core: AT)",recombinant barcode read abundance (log10),0.00785
"TCTACCCCCTGGGTTCTAACCTGTTGCTGGG [TCTACCCCTCA_LTGcore_CC_RTGcore_CC] (site TCTACCCCTCA) (LTG core: CC, RTG core: CC)",recombinant barcode read abundance (log10),0.0201
"TCTACCCCTTGGGTTCTAACCTGTTGCTGAA [TCTACCCCTCA_LTGcore_CT_RTGcore_TT] (site TCTACCCCTCA) (LTG core: CT, RTG core: TT)",recombinant barcode read abundance (log10),0.241
"TCTACCCCTTGGGTTCTAACCTGTTGCTGGG [TCTACCCCTCA_LTGcore_CT_RTGcore_CC] (site TCTACCCCTCA) (LTG core: CT, RTG core: CC)",recombinant barcode read abundance (log10),0.28
"TCTACCCCTTGGGTTCTAACCTGTTGCTGTG [TCTACCCCTCA_LTGcore_CT_RTGcore_CA] (site TCTACCCCTCA) (LTG core: CT, RTG core: CA)",recombinant barcode read abundance (log10),0.182
"TCTACCCTGTGGGTTCTAACCTGTTGCTGAG [TCTACCCCTCA_LTGcore_TG_RTGcore_CT] (site TCTACCCCTCA) (LTG core: TG, RTG core: CT)",recombinant barcode read abundance (log10),0.0669
"TCTACCCTGTGGGTTCTAACCTGTTGCTGCA [TCTACCCCTCA_LTGcore_TG_RTGcore_TG] (site TCTACCCCTCA) (LTG core: TG, RTG core: TG)",recombinant barcode read abundance (log10),0.0126
"TGATACCATTGGGTTCTAACCTGTTGCGTAT [TGATACCCTAC_LTGcore_AT_RTGcore_AT] (site TGATACCCTAC) (LTG core: AT, RTG core: AT)",recombinant barcode read abundance (log10),0.0803
"TGATACCCCTGGGTTCTAACCTGTTGCGTGG [TGATACCCTAC_LTGcore_CC_RTGcore_CC] (site TGATACCCTAC) (LTG core: CC, RTG core: CC)",recombinant barcode read abundance (log10),0.351
"TGATACCCTTGGGTTCTAACCTGTTGCGTGC [TGATACCCTAC_LTGcore_CT_RTGcore_GC] (site TGATACCCTAC) (LTG core: CT, RTG core: GC)",recombinant barcode read abundance (log10),1.67
"TGATACCCTTGGGTTCTAACCTGTTGCGTGT [TGATACCCTAC_LTGcore_CT_RTGcore_AC] (site TGATACCCTAC) (LTG core: CT, RTG core: AC)",recombinant barcode read abundance (log10),0.0827
"TGATACCCTTGGGTTCTAACCTGTTGCGTTC [TGATACCCTAC_LTGcore_CT_RTGcore_GA] (site TGATACCCTAC) (LTG core: CT, RTG core: GA)",recombinant barcode read abundance (log10),0.335
"TGATACCCTTGGGTTCTAACCTGTTGCGTTT [TGATACCCTAC_LTGcore_CT_RTGcore_AA] (site TGATACCCTAC) (LTG core: CT, RTG core: AA)",recombinant barcode read abundance (log10),0.666
"TGATACCGCTGGGTTCTAACCTGTTGCGTAG [TGATACCCTAC_LTGcore_GC_RTGcore_CT] (site TGATACCCTAC) (LTG core: GC, RTG core: CT)",recombinant barcode read abundance (log10),0.164
"TGATACCTCTGGGTTCTAACCTGTTGCGTAG [TGATACCCTAC_LTGcore_TC_RTGcore_CT] (site TGATACCCTAC) (LTG core: TC, RTG core: CT)",recombinant barcode read abundance (log10),0.146
"TGATACCTTTGGGTTCTAACCTGTTGCGTAG [TGATACCCTAC_LTGcore_TT_RTGcore_CT] (site TGATACCCTAC) (LTG core: TT, RTG core: CT)",recombinant barcode read abundance (log10),0.0115
"TGTATTCAGTGGGTTCTAACCTGTTGCCTAG [TGTATTCCTAG_LTGcore_AG_RTGcore_CT] (site TGTATTCCTAG) (LTG core: AG, RTG core: CT)",recombinant barcode read abundance (log10),0.0134
"TGTATTCATTGGGTTCTAACCTGTTGCCTAT [TGTATTCCTAG_LTGcore_AT_RTGcore_AT] (site TGTATTCCTAG) (LTG core: AT, RTG core: AT)",recombinant barcode read abundance (log10),0.144
"TGTATTCCATGGGTTCTAACCTGTTGCCTTG [TGTATTCCTAG_LTGcore_CA_RTGcore_CA] (site TGTATTCCTAG) (LTG core: CA, RTG core: CA)",recombinant barcode read abundance (log10),0.579
"TGTATTCCGTGGGTTCTAACCTGTTGCCTAG [TGTATTCCTAG_LTGcore_CG_RTGcore_CT] (site TGTATTCCTAG) (LTG core: CG, RTG core: CT)",recombinant barcode read abundance (log10),0.356
